Consider three compounds from paper PMC8952231 (Pharmaceutics, 2022).

Data set [1] in a line: Randomized, open-label, single-dose crossover pharmacokinetic study; plasma concentrations by LC-MS/MS, non-compartmental analysis. The format is in vivo, human. To be noted: for Intra-Participant CV% of AUCinf / Intra-Participant CV% of AUClast / Intra-Participant CV% of Cmax: IC vs. FCDP crossover; for AUC(0-inf) / AUC(0-t) / Cmax / Tmax / half-life: male, human, plasma. The source says: Sixty-three healthy male volunteers (age, 19–45 years; body weight > 50 kg) agreed to participate in the study and signed a written informed consent form. Only male participants were recruited to avoid the potential risk of pregnancy. The participants were considered healthy after a detailed physical examination by physicians involving 12-lead electrocardiographs (ECG), vital sign assessments, and laboratory evaluations, including blood chemistry, hematology, and urinalysis. […] The study protocol was approved (IRB No.2019AN0538, clinicaltrial.gov; NCT05066516) by the Institutional Review Board of Anam Hospital, Korea University Medical Center (Seoul, Korea), and all procedures were conducted following the principles described in the Declaration of Helsinki and Good Clinical Practice guidelines.
This study was conducted as a randomized, open-label, single-dose crossover study. All participants were randomly allocated to group A (period 1: individual components (ICs), period 2: FCDP) or group B (period 1: FCDP, period 2: ICs). […] All medications were biopharmaceutical classification system (BCS) III drugs with high solubility and low permeability. […] For FCDP, microcrystalline cellulose and copovidone were used as major excipients.
On day 1 (the day of each drug administration), serial blood samples were drawn immediately before (0 h) and 0.25, 0.5, 0.75, 1, 1.5, 2, 2.5, 3, 4, 6, 8, 12, 24, 48, and 72 h after each dosing to assess the pharmacokinetics of each drug. The collected samples were centrifuged (at 1977× g, 4 °C) for 15 min, and the extracted plasma samples were stored frozen at −60 °C until they were analyzed.
For dapagliflozin analysis, 100 µL plasma was added to a glass tube containing an internal standard (10 µL of 1 mg/mL dapagliflozin-d5) and 1 mL methanol. The samples were vigorously vortexed and centrifuged at 10,770× g for 3 min. Next, 100 µL of the upper layer was transferred to a polypropylene tube with 10 µL of internal standard (dapagliflozin-d5, Toronto Research, Toronto, ON, Canada) and 300 µL of acetonitrile. After vigorous vortexing and centrifugation at 2191× g for 1 min, 200 µL of the upper layer was transferred to another polypropylene tube with 200 µL of ammonium acetate (0.1%, w/v). A 20 µL aliquot of the solution was finally injected into the LC–MS/MS system; 0.1% ammonium acetate and methanol were used for the mobile phase. The gradient elution mode was applied (methanol proportion ranging between 57.5% and 90% in 5 min) with a constant flow rate of 0.4 mL/min. Dapagliflozin was quantified using the multiple reaction monitoring (MRM) mode. The produced transitions were m/z 426.47 → 166.84 for dapagliflozin and m/z 431.50 → 166.85 for dapagliflozin-d5. The linear function of dapagliflozin concentration ranged from 1 to 400 ng/mL with regression correlation coefficients of the calibration curves (R) greater than 0.999. The intra-day and inter-day CV values were below 15%. The lower limit of quantification (LLOQ) using this method was 1 ng/mL.
Linagliptin-^13C-d3 (TLC Pharmaceutical Standards Ltd., Newmarket, ON, Canada) was used as the internal standard, and 100 µL of plasma was added to a glass tube containing the internal standard (10 µL of 1 mg/mL linagliptin-^13C-d3) and 1 mL methanol. The samples were vigorously vortexed and centrifuged at 10,770× g for 3 min. Next, 100 µL of the upper layer was transferred to a polypropylene tube with 10 µL of the internal standard and 400 µL of methanol. After vigorous vortexing and centrifugation at 2191× g for 1 min, 100 µL of the upper layer was transferred to another polypropylene tube containing 300 µL of formic acid in distilled water (0.1%, w/v). A 20 µL aliquot of the solution was finally injected into the LC–MS/MS system; 0.1% ammonium formate in distilled water and acetonitrile was used as the mobile phase. […] Linagliptin was quantified using MRM mode. […] The intra-day and inter-day CV values were <15%. The LLOQ with this method was 0.04 ng/mL. […]

The subject of data set [2] is uridine diphosphate glucuronosyltransferase 1A9. As to conditions: cited from earlier work.
Data set [3] deals with P-gp. To be noted: cited from earlier work.
In data set [4] the test system is SGLT2:SGLT1 receptor. As to conditions: compared with empagliflozin; cited from earlier work.
The conditions of data set [5]: cited from earlier work; for food effect: previous studies.
Data set [6] deals with cytochrome P450 3A4 enzyme. To be noted: in humans; cited from earlier work.
Where [7] appears, read: IC: co-administered single oral doses of Forxiga 10 mg and Trajenta 5 mg, fasted healthy males, mean ± SD.
Setting [8] is: IC: co-administered single oral doses of Forxiga 10 mg and Trajenta 5 mg, fasted healthy males, 0 to 72 h, mean ± SD.
[9] abbreviates: IC: co-administered single oral doses of Forxiga 10 mg and Trajenta 5 mg, fasted healthy males, median (range).

Some results are limits rather than exact numbers.

As usually defined, the CL/F is clearance divided by bioavailability, as obtained after extravascular dosing. The term AUC(0-inf) denotes the area under the concentration-time curve extrapolated to infinity. As usually defined, the AUC(0-t) is the area under the concentration-time curve up to a stated or last time point. As usually defined, the Cmax is the highest concentration seen after dosing. A word on the Tmax: it is the time at which the peak concentration occurs. The half-life is the time needed for the level to fall by half in the phase considered. `CCOc1ccc(Cc2cc([C@@H]3O[C@H](CO)[C@@H](O)[C@H](O)[C@H]3O)ccc2Cl)cc1` [dapagliflozin] showed a CL/F in data set [1] (FCDP: single oral dose IN-C009 (dapagliflozin 10 mg/linagliptin 5 mg), fasted healthy males, mean ± SD) of 20.01 ± 3.6 L/h. Further, in data set [1], the “Intra-Participant CV% of AUCinf” value was 7.35%, the “Intra-Participant CV% of AUClast” value came to 7.91% and the “Intra-Participant CV% of Cmax” value is reported as 20.49%. In data set [1] (setting [7]), the CL/F turned out to be 20.67 ± 3.89 L/h, the AUC(0-inf) was 500 ± 93.9 ng·h/mL, the Cmax amounted to 161 ± 42 ng/mL and the half-life was 11.3 ± 3.39 h. Moreover, in data set [1] (po, 5 mg), the total exposure AUC(0-inf) was determined as 516 ± 98.3 ng·h/mL, the AUC(0-t) turned out to be 466 ± 99.3 ng·h/mL, the Cmax amounted to 168 ± 42.1 ng/mL and the Tmax came out at 0.75 h. In data set [1] (po, 5 mg), this compound had a half-life of 12.8 ± 3.84 h. The AUC(0-t) in data set [1] (setting [8]) was found to be 456 ± 92.8 ng·h/mL. The Tmax in data set [1] (setting [9]) came out at 0.75 h. In addition, the “fraction metabolized by uridine diphosphate glucuronosyltransferase 1A9” value in data set [2] is listed as “approximately 65%”. In data set [3] (in vitro studies), the P-gp inhibitor status entry is listed as “not an inhibitor” and the P-gp substrate status entry is recorded as “weak substrate”. Also, the “SGLT2:SGLT1 receptor selectivity” value in data set [4] is “lower SGLT2:SGLT1 receptor selectivity”. In addition, in data set [5], the “half-life (t1/2)” value was 8.1 to 12.2 h and the food effect entry is listed as “no possible food effect”.
Regarding `CC#CCn1c(N2CCC[C@@H](N)C2)nc2c1c(=O)n(Cc1nc(C)c3ccccc3n1)c(=O)n2C` [linagliptin], in data set [1], the “Intra-Participant CV% of AUCinf” value stood at 12.67%, the “Intra-Participant CV% of AUClast” value was 7.96% and the “Intra-Participant CV% of Cmax” value is listed as 27.58%. Further, in data set [1] (po, 5 mg), the AUC(0-inf) is 268 ± 88 ng·h/mL, the AUC(0-t) was found to be 157 ± 35.9 ng·h/mL, the Cmax was found to be 4.2 ± 2.01 ng/mL and the Tmax came out at 1.5 h. Moreover, the half-life in data set [1] (po, 5 mg) was 54.3 ± 12.3 h. Also, the AUC(0-t) in data set [1] (setting [8]) stood at 155 ± 30.4 ng·h/mL. In data set [1] (setting [7]), the AUC(0-inf) was 266 ± 78.7 ng·h/mL, the Cmax turned out to be 3.95 ± 1.42 ng/mL and the half-life was 54.9 ± 13.6 h. The Tmax in data set [1] (setting [9]) worked out at 2.5 h. Also, the P-gp inhibition result in data set [3] (at the therapeutic levels) is listed as “does not inhibit P-gp”. Moreover, the “Km of P-gp associated transport” value in data set [3] is 187 µM. Further, the “substrate for P-glycoprotein (P-gp)” value in data set [3] (in humans) was “known substrate”. Besides, in data set [5], the oral bioavailability result is “approximately 30%” and the food effect result is on record as “no possible food effect”. Moreover, in data set [5] (human, in vivo), the kidney excretion is listed as 5%. Further, in data set [5] (therapeutic dose (5 mg)), the “time to reach steady-state level” value is listed as ≤ 4 days. The “substrate for cytochrome P450 3A4 enzyme” value in data set [6] was “known substrate”.
In the case of `N#C[C@@H]1C[C@@H]2C[C@@H]2N1C(=O)[C@@H](N)C12CC3CC(CC(O)(C3)C1)C2` [saxagliptin], the “half-life, metabolite” value in data set [5] (metabolite of saxagliptin) was 3.1 h.
